The target of this assay is Nav 1.7 (Homo sapiens (Human), UniProt Q15858). Kind of assay: in-vitro Nav 1.7 PX (IC50). Type of assay: cell-based.
The mark [1] stands for this setting: in-vitro Nav 1.7 PX data (PatchXpress).

Read-outs that look alike come from different tables or passages of the source.

Sequence of Nav 1.7 (Q15858 whole entry): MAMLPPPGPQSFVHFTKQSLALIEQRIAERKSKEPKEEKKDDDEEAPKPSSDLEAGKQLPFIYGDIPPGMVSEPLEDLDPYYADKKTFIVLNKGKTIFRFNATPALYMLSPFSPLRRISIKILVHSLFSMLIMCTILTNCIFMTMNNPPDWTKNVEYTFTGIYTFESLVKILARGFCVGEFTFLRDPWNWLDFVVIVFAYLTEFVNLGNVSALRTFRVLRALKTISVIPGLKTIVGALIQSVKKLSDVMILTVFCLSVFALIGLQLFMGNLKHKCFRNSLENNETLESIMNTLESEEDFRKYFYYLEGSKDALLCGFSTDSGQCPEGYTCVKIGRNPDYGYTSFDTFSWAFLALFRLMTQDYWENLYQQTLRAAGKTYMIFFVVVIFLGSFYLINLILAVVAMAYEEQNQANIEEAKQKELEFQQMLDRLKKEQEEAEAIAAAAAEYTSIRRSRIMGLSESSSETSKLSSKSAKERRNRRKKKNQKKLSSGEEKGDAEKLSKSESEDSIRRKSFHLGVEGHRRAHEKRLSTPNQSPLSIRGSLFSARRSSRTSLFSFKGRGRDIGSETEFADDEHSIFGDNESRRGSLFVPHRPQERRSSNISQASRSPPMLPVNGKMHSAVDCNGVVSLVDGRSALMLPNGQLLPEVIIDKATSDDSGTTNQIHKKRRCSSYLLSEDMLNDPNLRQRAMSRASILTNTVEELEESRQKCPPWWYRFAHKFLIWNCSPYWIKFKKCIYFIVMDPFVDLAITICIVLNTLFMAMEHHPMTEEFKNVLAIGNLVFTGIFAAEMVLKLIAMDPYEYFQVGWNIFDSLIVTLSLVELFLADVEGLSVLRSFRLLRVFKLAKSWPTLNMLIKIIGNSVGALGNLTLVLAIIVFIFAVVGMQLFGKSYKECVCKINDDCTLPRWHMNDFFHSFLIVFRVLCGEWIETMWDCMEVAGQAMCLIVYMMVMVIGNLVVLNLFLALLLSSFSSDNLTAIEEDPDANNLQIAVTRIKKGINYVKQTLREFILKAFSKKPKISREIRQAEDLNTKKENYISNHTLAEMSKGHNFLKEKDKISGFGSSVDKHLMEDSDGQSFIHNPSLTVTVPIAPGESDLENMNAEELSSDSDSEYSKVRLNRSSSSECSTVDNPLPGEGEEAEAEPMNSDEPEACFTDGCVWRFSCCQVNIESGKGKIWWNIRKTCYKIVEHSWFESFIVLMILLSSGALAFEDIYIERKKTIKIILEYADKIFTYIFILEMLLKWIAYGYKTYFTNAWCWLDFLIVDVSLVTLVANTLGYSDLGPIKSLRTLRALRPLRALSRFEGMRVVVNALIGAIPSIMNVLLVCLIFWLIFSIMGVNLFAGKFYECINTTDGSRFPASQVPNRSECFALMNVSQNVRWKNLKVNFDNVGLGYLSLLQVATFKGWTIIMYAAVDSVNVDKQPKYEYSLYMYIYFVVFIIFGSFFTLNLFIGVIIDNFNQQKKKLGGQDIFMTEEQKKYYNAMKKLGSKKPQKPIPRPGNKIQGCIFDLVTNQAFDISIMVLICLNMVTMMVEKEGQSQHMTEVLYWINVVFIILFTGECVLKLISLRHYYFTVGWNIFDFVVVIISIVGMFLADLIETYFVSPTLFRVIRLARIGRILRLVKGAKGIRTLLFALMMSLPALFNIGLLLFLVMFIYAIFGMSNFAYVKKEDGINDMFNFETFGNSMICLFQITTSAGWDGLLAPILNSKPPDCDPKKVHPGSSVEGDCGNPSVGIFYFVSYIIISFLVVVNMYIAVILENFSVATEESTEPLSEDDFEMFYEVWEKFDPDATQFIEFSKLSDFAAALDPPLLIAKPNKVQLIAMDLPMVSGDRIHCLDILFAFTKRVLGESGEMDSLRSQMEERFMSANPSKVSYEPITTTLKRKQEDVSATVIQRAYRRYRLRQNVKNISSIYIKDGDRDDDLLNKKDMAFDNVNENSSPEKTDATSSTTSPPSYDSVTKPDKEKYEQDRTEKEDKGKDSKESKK

As usually defined, the IC50 is the concentration that gives 50% inhibition. Higher therefore signals weaker potency in that assay. For the compound `COc1cc(-c2cccc(C(F)(F)F)c2)ccc1-n1c(=O)ccc2cc(S(=O)(=O)Nc3cccc(F)n3)ccc21` (atropisomer, axis not shown; (P)) [Example 1242, (P)—N-(6-fluoro-2-pyridinyl)-1-(3-methoxy-3′-(trifluoromethyl)-4-biphenylyl)-2-oxo-1,2-dihydro-6-quinolinesulfonamide], the IC50 was found to be 79 nM.

As to `Cc1cc(-c2cc(C)c(-n3c(=O)ccc4cc(S(=O)(=O)Nc5ncccn5)ccc43)cc2F)ccc1Cl` (atropisomer, axis not shown; (M)) [Example 650, (M)-1-(4′-chloro-2-fluoro-3′,5-dimethyl-4-biphenylyl)-2-oxo-N-2-pyrimidinyl-1,2-dihydro-6-quinolinesulfonamide], for the setting “in-vitro Nav 1.7 PX data”, half-maximal inhibition (IC50) was put at 3800 nM. Consider `COc1nc(-c2cccc(F)c2)c(Cl)cc1-n1c(=O)ccc2cc(S(=O)(=O)Nc3ccon3)ccc21` [Example 341, 1-(5-chloro-6-(3-fluorophenyl)-2-methoxypyridin-3-yl)-N-(isoxazol-3-yl)-2-oxo-1,2-dihydroquinoline-6-sulfonamide], for which the IC50 (in-vitro PatchXpress (PX)) came out at 168 nM.

Where the note is “in-vitro PatchXpress (PX)”, `COc1cc(-c2cc(F)c(F)cc2F)c(F)cc1-n1c(=O)ccc2cc(S(=O)(=O)Nc3ccon3)ccc21` (atropisomer, axis not shown; (M)) [Example 517, (M)-N-3-isoxazolyl-2-oxo-1-(2,2′,4′,5′-tetrafluoro-5-methoxy-4-biphenylyl)-1,2-dihydro-6-quinolinesulfonamide] yielded an IC50 of 21 nM. `COc1cc(-c2cccc(C3CC3)c2)ccc1-n1c(=O)ccc2cc(S(=O)(=O)Nc3ccon3)ccc21` [Example 788, 1-(3′-cyclopropyl-3-methoxy-4-biphenylyl)-N-3-isoxazolyl-2-oxo-1,2-dihydro-6-quinolinesulfonamide] yielded an IC50 (in-vitro Nav 1.7 PX data) of 6 nM.

On to `COc1nc(-c2cc(F)cc(F)c2)c(Cl)cc1-n1c(=O)ccc2cc(S(=O)(=O)Nc3ccon3)ccc21` (atropisomer, axis not shown; (P)) [Example 665, (P)-1-(5-chloro-6-(3,5-difluorophenyl)-2-methoxy-3-pyridinyl)-N-3-isoxazolyl-2-oxo-1,2-dihydro-6-quinolinesulfonamide], for which 15 nM corresponded to half-maximal inhibition (in-vitro Nav 1.7 PX data) (IC50). `COc1nc(-c2cc(F)cc(F)c2)c(Cl)cc1-n1c(=O)ccc2cc(S(=O)(=O)Nc3ncccn3)ccc21` [Example 1080, 1-(5-chloro-6-(3,5-difluorophenyl)-2-methoxy-3-pyridinyl)-2-oxo-N-2-pyrimidinyl-1,2-dihydro-6-quinolinesulfonamide] gave an IC50 (in-vitro Nav 1.7 PX data) of 21 nM. `COc1cc(-c2ccc(C)c(F)c2)c(F)cc1-n1c(=O)ccc2cc(S(=O)(=O)Nc3ncc(F)cn3)ccc21` [Example 1127, 1-(2,3′-difluoro-5-methoxy-4′-methyl-4-biphenylyl)-N-(5-fluoro-2-pyrimidinyl)-2-oxo-1,2-dihydro-6-quinolinesulfonamide]: it took 34 nM to reach half-maximal inhibition (in-vitro Nav 1.7 PX data) (IC50).

Take `COc1cc(-c2ccc(Cl)cc2)c(F)cc1-n1c(=O)ccc2cc(S(=O)(=O)Nc3cccnn3)ccc21` [Example 746, 1-(4′-chloro-2-fluoro-5-methoxy-4-biphenylyl)-2-oxo-N-3-pyridazinyl-1,2-dihydro-6-quinolinesulfonamide]: the IC50 (in-vitro Nav 1.7 PX data) was determined as 24 nM. “1-(2′-chloro-5-methoxy-2,3′-dimethyl-4-biphenylyl)-2-oxo-N-2-pyrimidinyl-1,2-dihydro-6-quinolinesulfonamide [Example 961]” yielded an IC50 of 56 nM. The compound `COc1cc(-c2cccc(OC(F)F)c2)c(F)cc1-n1c(=O)ccc2cc(S(=O)(=O)Nc3cccnn3)ccc21` (atropisomer, axis not shown; (P)) [Example 1172, (P)-1-(3′-(difluoromethoxy)-2-fluoro-5-methoxy-4-biphenylyl)-2-oxo-N-3-pyridazinyl-1,2-dihydro-6-quinolinesulfonamide] showed an IC50 of 29 nM.

Under “in-vitro PatchXpress (PX)”, `COc1cc(-c2ccc(C)c(Cl)c2)c(F)cc1-n1c(=O)ccc2cc(S(=O)(=O)Nc3ccon3)ccc21` (atropisomer, axis not shown; (M)) [Example 529, (M)-1-(3′-chloro-2-fluoro-5-methoxy-4′-methyl-4-biphenylyl)-N-3-isoxazolyl-2-oxo-1,2-dihydro-6-quinolinesulfonamide] registered a half-maximal inhibitory concentration (IC50) of 3150 nM. In turn, `COc1cc(-c2cccc(C(F)(F)F)c2)ccc1-n1c(=O)ccc2cc(S(=O)(=O)Nc3cnccn3)ccc21` [Example 915, 1-(3-methoxy-3′-(trifluoromethyl)-4-biphenylyl)-2-oxo-N-2-pyrazinyl-1,2-dihydro-6-quinolinesulfonamide] came in with an IC50 (in-vitro Nav 1.7 PX data) of 31 nM. `COc1cc(OC)cc(-c2cc(OC)c(-n3c(=O)ccc4cc(S(=O)(=O)Nc5ccnc(C)n5)ccc43)cc2F)c1` (atropisomer, axis not shown; (P)) [Example 1171, (P)-1-(2-fluoro-3′,5,5′-trimethoxy-4-biphenylyl)-N-(2-methyl-4-pyrimidinyl)-2-oxo-1,2-dihydro-6-quinolinesulfonamide] showed an IC50 of 96 nM. The same measure, in the same setting: to `COc1cc(Br)c(C)cc1-n1c(=O)ccc2cc(S(=O)(=O)Nc3ccon3)ccc21` (atropisomer, axis not shown; (P)) [Example 415, (P)-1-(4-bromo-2-methoxy-5-methylphenyl)-N-3-isoxazolyl-2-oxo-1,2-dihydro-6-quinolinesulfonamide] belongs 269 nM; to `COc1cc(-c2cccc(Cl)c2)c(C)cc1-n1c(=O)ccc2cc(S(=O)(=O)Nc3ccon3)ccc21` (atropisomer, axis not shown; (M)) [Example 313, (M)-1-(3′-chloro-5-methoxy-2-methyl-4-biphenylyl)-N-3-isoxazolyl-2-oxo-1,2-dihydro-6-quinolinesulfonamide], 799 nM. Take `O=c1ccc2cc(S(=O)(=O)Nc3ncns3)ccc2n1-c1ccc(-c2cc(F)cc(F)c2)cc1C1CC1` [Example 1049, 1-(3-cyclopropyl-3′,5′-difluoro-4-biphenylyl)-2-oxo-N-1,2,4-thiadiazol-5-yl-1,2-dihydro-6-quinolinesulfonamide]: the IC50 under setting [1] came to 912 nM. With `COc1ccc(-c2cccc(F)c2)cc1-n1c(=O)ccc2cc(S(=O)(=O)Nc3ccon3)ccc21` (atropisomer, axis not shown; (P)) [Example 483, (P)-1-(3′-fluoro-4-methoxy-3-biphenylyl)-N-3-isoxazolyl-2-oxo-1,2-dihydro-6-quinolinesulfonamide], half-maximal inhibition (IC50) was put at 54 nM. Take `O=c1ccc2cc(S(=O)(=O)Nc3nncs3)ccc2n1-c1ccc(-c2cc(F)cc(F)c2)cc1C1CC1` [Example 1046, 1-(3-cyclopropyl-3′,5′-difluoro-4-biphenylyl)-2-oxo-N-1,3,4-thiadiazol-2-yl-1,2-dihydro-6-quinolinesulfonamide]: half-maximal inhibition under setting [1] (IC50) required 112 nM. Consider `COc1cc(-c2cc(F)cc(C(F)(F)F)c2)ccc1-n1c(=O)ccc2cc(S(=O)(=O)Nc3cc(C)ncn3)ccc21` [Example 1101, 1-(3′-fluoro-3-methoxy-5′-(trifluoromethyl)-4-biphenylyl)-N-(6-methyl-4-pyrimidinyl)-2-oxo-1,2-dihydro-6-quinolinesulfonamide], for which the IC50 (in-vitro Nav 1.7 PX data) was 41 nM. Compound `COc1cc(N2CC(F)(F)C2)c(F)cc1-n1c(=O)ccc2cc(S(=O)(=O)Nc3ccon3)ccc21` [Example 406, 1-(4-(3,3-difluoro-1-azetidinyl)-5-fluoro-2-methoxyphenyl)-N-3-isoxazolyl-2-oxo-1,2-dihydro-6-quinolinesulfonamide] came in with an IC50 (in-vitro PatchXpress (PX)) of 1000 nM. `COc1cc(-c2cc(C)ccc2C)ccc1-n1c(=O)ccc2cc(S(=O)(=O)Nc3ccon3)ccc21` [Example 1055, N-3-isoxazolyl-1-(3-methoxy-2′,5′-dimethyl-4-biphenylyl)-2-oxo-1,2-dihydro-6-quinolinesulfonamide] returned an IC50 under setting [1] of 16 nM.

Consider `COc1cc(Cl)cc(-c2ccc(-n3c(=O)ccc4cc(S(=O)(=O)Nc5ncccn5)ccc43)c(OC)c2)c1` [Example 923, 1-(3′-chloro-3,5′-dimethoxy-4-biphenylyl)-2-oxo-N-2-pyrimidinyl-1,2-dihydro-6-quinolinesulfonamide], for which, under “in-vitro Nav 1.7 PX data”, 12 nM corresponded to half-maximal inhibition (IC50). In turn, `COc1cc(-c2cnc(C)c(Cl)c2)c(F)cc1-n1c(=O)ccc2cc(S(=O)(=O)Nc3ccon3)ccc21` [Example 532, 1-(4-(5-chloro-6-methyl-3-pyridinyl)-5-fluoro-2-methoxyphenyl)-N-3-isoxazolyl-2-oxo-1,2-dihydro-6-quinolinesulfonamide] had an IC50 (in-vitro PatchXpress (PX)) of 282 nM. For the setting “in-vitro Nav 1.7 PX data, Table 4”, `COc1cc(-c2cnc(OC)c(Cl)c2)c(F)cc1-n1c(=O)ccc2cc(S(=O)(=O)Nc3cc(C)ncn3)ccc21` (atropisomer, axis not shown; (P)) [Example 1159, (P)-1-(4-(5-chloro-6-methoxy-3-pyridinyl)-5-fluoro-2-methoxyphenyl)-N-(6-methyl-4-pyrimidinyl)-2-oxo-1,2-dihydro-6-quinolinesulfonamide] gave an IC50 of 51 nM. With `COc1cc(-c2ccc(Cl)cc2)c(F)cc1-n1c(=O)ccc2cc(S(=O)(=O)Nc3cc(C)ncn3)ccc21` [Example 752, 1-(4′-chloro-2-fluoro-5-methoxy-4-biphenylyl)-N-(6-methyl-4-pyrimidinyl)-2-oxo-1,2-dihydro-6-quinolinesulfonamide], 20 nM corresponded to half-maximal inhibition (in-vitro Nav 1.7 PX data) (IC50).

Turning to `Cc1cc(-c2cc(C)c(-n3c(=O)ccc4cc(S(=O)(=O)Nc5ncccn5)ccc43)cc2F)ccc1Cl` (atropisomer, axis not shown; (P)) [Example 649], where the note is “in-vitro Nav 1.7 PX data”, the IC50 worked out at 49 nM. `COc1cc(-c2ccc(C)c(Cl)c2)c(F)cc1-n1c(=O)ccc2cc(S(=O)(=O)Nc3ccon3)ccc21` (atropisomer, axis not shown; (P)) [Example 528, (P)-1-(3′-chloro-2-fluoro-5-methoxy-4′-methyl-4-biphenylyl)-N-3-isoxazolyl-2-oxo-1,2-dihydro-6-quinolinesulfonamide] came in with an IC50 (in-vitro PatchXpress (PX)) of 7 nM. For `COc1nc(OCC2(C)CC2)c(Cl)cc1-n1c(=O)ccc2cc(S(=O)(=O)Nc3ccon3)ccc21` [Example 822, 1-(5-chloro-2-methoxy-6-((1-methylcyclopropyl)methoxy)-3-pyridinyl)-N-3-isoxazolyl-2-oxo-1,2-dihydro-6-quinolinesulfonamide], the IC50 (in-vitro Nav 1.7 PX data) is 460 nM.

The record behind these values is patent US9212182B2, “Bicyclic sulfonamide compounds as sodium channel inhibitors” (AMGEN INC., priority 2013, dated 2015).
